Test results reported in patent publication US20130053357A1, “SKIN IRRITATION SUPPRESSANT AND TRANSDERMAL PREPARATION” (HISAMITSU PHARMACEUTICAL CO., INC., priority 2010, published 2013).
Where a name gives a salt, the structure may show the parent alone. Read-outs that look alike come from different tables or passages of the source.

Tests used:
[1] = tested on: human three-dimensional culture epidermal model (LabCyte EPI-MODEL); test: Production of skin irritation mediators induced by PMA in human three-dimensional epidermal culture model (Experiment 1); type: cell-based; conditions: for activity at 0.1 % / activity at 0.01 % / activity at 1 %: Homo sapiens, 48 hours; for activity at 0.1 %: test substance 0.1 mass % with PMA in olive oil; for Effect on skin irritation mediator production by PMA (in words): summary of Table 1; for activity at 0.01 %: test substance 0.01 mass % with PMA in olive oil; for activity at 1 %: test substance 1 mass % with PMA in olive oil
Text: Changes in production amounts of skin irritation mediators by test substances were examined when cutaneous irritants were caused to act on a human three-dimensional culture epidermal model.
(§1) A human three-dimensional epidermal culture model obtained by multilayer-culturing a human normal epidermal cell (LabCyte EPI-MODEL, manufactured by Japan Tissue Engineering Co., Ltd.) was used. LabCyte is a cultured skin cultured in a transwell. For the experiment, LabCyte was used with the transwell.
As test substances, there were used cholesterol (manufactured by Wako Pure Chemical Industries, Ltd.), β-sitosterol (manufactured by TAMA BIOCHEMICAL CO., LTD.), α-spinasterol (manufactured by ChromaDex, Inc.), ergosterol (manufactured by Wako Pure Chemical Industries, Ltd.), campesterol (manufactured by TAMA BIOCHEMICAL CO., LTD.), glycyrrhizin (manufactured by Wako Pure Chemical Industries, Ltd.), glycyrrhetinic acid (manufactured by Wako Pure Chemical Industries, Ltd.), ginsenoside (manufactured by Wako Pure Chemical Industries, Ltd.), squalene (manufactured by Wako Pure Chemical Industries, Ltd.), squalane (manufactured by Tokyo Chemical Industry Co., Ltd.) and lanosterol (manufactured by ChromaDex, Inc.), which are candidates of a skin irritation suppressant.
As skin irritants, Phorbol 12-Myristate 13-Acetate (PMA, manufactured by Wako Pure Chemical Industries, Ltd.) was used. In addition, as vehicle, olive oil (manufactured by Wako Pure Chemical Industries, Ltd.) was used.
Experiments were conducted by the following group composition. • PMA Only Group: A group with addition of only 0.00001 mol of PMA dispersed in a vehicle, as a test solution. • Test Substance Group: A group with addition of 0.00001 mol of PMA and the test substance which were dispersed in a vehicle, as a test solution.
(§2) The experiment was conducted as below. First, LabCyte was put into a 24-well assay plate. Then, 1 ml of assay medium (Japan Tissue Engineering Co., Ltd.) was added so that it was brought into contact with a bottom surface of the cultured skin in each well of the 24-well assay plate, and was pre-cultured in an incubator with 5% of carbon dioxide concentration at 37° C. for 1 hour.
Next, a cell survival rate was measured by the MTT method after causing the test solutions of each group to act. Specifically, 50 μL of the test solution of each group was added to the surface of the LabCyte after preculture, was cultured in the incubator with 5% of carbon dioxide concentration at 37° C. for 48 hours, then was transferred to the assay medium comprising 0.5 mg/ml of MTT reagent, and was cultured in the incubator with 5% of carbon oxide level at 37° C. for 3 hours. Then, LabCyte was immersed in 0.3 ml of an isopropanol solution, and the produced blue-purple formazan was extracted for 2 hours. After extraction, an absorbance at 570 nm was measured by a 96 microplate reader. The cell survival rate was calculated as below.
Cell survival rate (%)=(absorbance of Test Substance Group)/(absorbance of PMA Only Group)×100
Subsequently, a production amount of the skin irritation mediator at a test substance concentration with 80% or more of cell survival rate was measured. As skin irritation mediators, PGE2, IL-1α, IL-6, IL-8 were measured.
(§3) The test solutions of each group were added to the cells, the culture solutions incubated for 48 hours were collected, and a production amount of each skin irritation mediator was measured. The skin irritation mediator was measured by using a commercially available ELISA kit (manufactured by R&D Systems, Inc.). A relative production amount of the skin irritation mediator in each test substance was calculated as below, when the production amount of the skin irritation mediator in the PMA Only Group was set to 100.
Relative production amount=(production amount of the mediator in Test Substance Group)/(production amount of the mediator in PMA Only Group)×100

[2] = tested on: croton oil-induced mouse ear swelling; test: Suppression of croton oil-induced mouse ear swelling reaction (Experiment 3); type: in vivo; conditions: for Inhibition Ratio Of Ear Swelling: ddY female mouse, 1% by mass of test substance in 2% croton oil solution, 25 μL on ears, auricular thickness 6 hours after; for Effect on croton oil-induced mouse ear swelling reaction (in words): summary of Table 3
Text: <Suppression of Croton Oil-Induced Mouse Ear Swelling Reaction by the Test Substances>
Suppression of mouse ear swelling was examined through the use of croton oil (Wako Pure Chemical Industries, Ltd.) as a swelling inducer. A 7-week-old ddY female mouse (SPF) was subjected to an experiment. As test substances, cholesterol, glycyrrhizin, glycyrrhetinic acid, squalene, ergosterol, squalane and lanosterol were used. As a vehicle, acetone (Wako Pure Chemical Industries, Ltd.) was used.
Experiments were conducted by the following group composition. • Positive Control Group: A group which received only the vehicle as a primary test solution, and one hour after, received a 2% croton oil solution as a secondary test solution. • Test Substance Group: A group in which only the vehicle was administered as a primary test solution, and one hour after, a 2% croton oil solution including 1% by mass of test substance was administered as a secondary test solution.
An inhibition ratio of ear swelling was calculated as below. In this test, a […] inflammation model is used to examine immediate swelling reactions. In accordance with the group composition, 25 μL of the primary test solution was uniformly coated on back sides of both ears in an etherize mouse, and one hour after, 25 μL of the secondary test solution was uniformly coated in accordance with the group composition. Prior to coating of the secondary test solution, a thickness of auricle was measured by DIAL […] GAUGE (OZAKI MFG CO., LTD.). Furthermore, the secondary test solution was administered, and 6 hours after, the auricular thickness was measured in the same way as mentioned above, and an increased amount of the auricular thickness was set by deducting the thickness measured prior to administration of the secondary test solution. The inhibition ratio of ear swelling was calculated as below.
Inhibition ratio of ear swelling (%)=(increased amount of auricular thickness in Test Substance Group−increased amount of auricular thickness in Negative Control Group)/(increased amount of auricular thickness in Positive Control Group−increased amount of auricular thickness in Negative Control Group)×100

[3] = tested on: human three-dimensional culture epidermal model (LabCyte EPI-MODEL); test: Suppression by cholesterol of skin irritation mediator production induced by asenapine and LADA in a human epidermal cell (Experiment 6); type: cell-based; conditions: asenapine maleate 0.6% in olive oil, without or with 1% by mass of cholesterol
Experimental: as §1, §2, §3
Cholesterol was used as a test substance. Asenapine and lauric acid diethanolamide (LADA) were used as the cutaneous irritants.
Tests were conducted by the following group composition. • Solvent Group: A group including only vehicle. Olive oil was used as a vehicle. • Skin Irritant Only Group: A group with addition of only cutaneous irritant dispersed in a vehicle, as a test solution. The concentration of asenapine maleate to be added was 0.6% (asenapine group), and that of LADA was 0.03% (LADA group). • Skin Irritant Plus Cholesterol Group: A group with addition of the drug and 1% by mass of cholesterol which were dispersed in a vehicle, as a test solution.
The experiment was conducted while other conditions were set in the same manner as Experiment 1.

[4] = read-out: Relative Production Amount of Skin Irritation Mediator when Production Amount in PMA Only Group is Set to 100: IL-1α
[5] = read-out: Relative Production Amount of Skin Irritation Mediator when Production Amount in PMA Only Group is Set to 100: IL-6
[6] = read-out: Relative Production Amount of Skin Irritation Mediator when Production Amount in PMA Only Group is Set to 100: IL-8
[7] = read-out: Relative Production Amount of Skin Irritation Mediator when Production Amount in PMA Only Group is Set to 100: PGE2

Compound | Effect on skin irritation mediator production by PMA (in words) [1] | Inhibition Ratio Of Ear Swelling [2] [%] | Effect on croton oil-induced mouse ear swelling reaction (in words) [2] | activity at 0.01 % [1, 4] [%] | activity at 0.01 % [1, 5] [%] | activity at 0.01 % [1, 6] [%] | activity at 0.01 % [1, 7] [%] | other results
CC(C)CCCC(C)CCCC(C)CCCCC(C)CCCC(C)CCCC(C)C (centres unmarked) [Squalane, squalane] | exhibited effects of suppressing the skin irritation mediator production by PMA | 61.6 | suppress croton oil-induced mouse ear swelling reaction | – | – | – | – | activity at 0.1 % [1, 4]: 18%; activity at 0.1 % [1, 5]: 55%; activity at 0.1 % [1, 6]: 39%; activity at 0.1 % [1, 7]: 41%
CC1(C)[C@@H](O[C@H]2O[C@H](C(=O)O)[C@@H](O)[C@H](O)[C@H]2O[C@@H]2O[C@H](C(=O)O)[C@@H](O)[C@H](O)[C@H]2O)CC[C@]2(C)[C@H]3C(=O)C=C4[C@@H]5C[C@@](C)(C(=O)O)CC[C@]5(C)CC[C@@]4(C)[C@]3(C)CC[C@@H]12 [Glycyrrhizin, glycyrrhizin] | exhibited effects of suppressing the skin irritation mediator production by PMA | 34.1 | suppress croton oil-induced mouse ear swelling reaction | 85 | 105 | 154 | 114 | –
CN1CC2c3ccccc3Oc3ccc(Cl)cc3C2C1 (centres unmarked) [Asenapine, asenapine maleate] | – | – | – | – | – | – | – | Production Amount of Skin Irritation Mediator: IL-1A [3]: 17.24 pg/mL; Production Amount of Skin Irritation Mediator: IL-6 [3]: 0.00 pg/mL; Production Amount of Skin Irritation Mediator: IL-8 [3]: 174.90 pg/mL; Production Amount of Skin Irritation Mediator: PGE2 [3]: 125.85 pg/mL; Production Amount of Skin Irritation Mediator: TNFA [3]: 0.00 pg/mL
CC1(C)[C@@H](O)CC[C@]2(C)[C@H]3C(=O)C=C4[C@@H]5C[C@@](C)(C(=O)O)CC[C@]5(C)CC[C@@]4(C)[C@]3(C)CC[C@@H]12 [Glycyrrhetinic Acid, glycyrrhetinic acid] | exhibited effects of suppressing the skin irritation mediator production by PMA | 53.4 | suppress croton oil-induced mouse ear swelling reaction | 77 | 46 | 81 | 48 | –
CC(C)=CCC/C(C)=C/CC/C(C)=C/CC/C=C(\C)CC/C=C(\C)CCC=C(C)C [Squalene, squalene] | exhibited effects of suppressing the skin irritation mediator production by PMA | 44.4 | suppress croton oil-induced mouse ear swelling reaction | 10 | 0 | 131 | 88 | –
CC(C)[C@@H](C)/C=C/[C@@H](C)[C@H]1CC[C@H]2C3=CC=C4C[C@@H](O)CC[C@]4(C)[C@H]3CC[C@]12C [Ergosterol, ergosterol] | exhibited effects of suppressing the skin irritation mediator production by PMA | 38.1 | suppress croton oil-induced mouse ear swelling reaction | – | – | – | – | activity at 1 % [1, 4]: 71%; activity at 1 % [1, 5]: 81%; activity at 1 % [1, 6]: 111%; activity at 1 % [1, 7]: 20%
CC(C)=CCC[C@@H](C)[C@H]1CC[C@@]2(C)C3=C(CC[C@]12C)[C@@]1(C)CC[C@H](O)C(C)(C)[C@@H]1CC3 [Lanosterol, lanosterol] | exhibited effects of suppressing the skin irritation mediator production by PMA | 65.9 | suppress croton oil-induced mouse ear swelling reaction | – | – | – | – | activity at 1 % [1, 4]: 76%; activity at 1 % [1, 5]: 90%; activity at 1 % [1, 6]: 73%; activity at 1 % [1, 7]: 47%
